Assay results as given in patent US20150004157A1, “OSTEOPONTIN ISOFORM A INHIBITORS AND METHODS OF USE” (NEW YORK UNIVERSITY, priority 2012, published 2015).
No end group written: not given here.

What was measured:
[1] = test system: H358, A549 and H460 cell lines; assay: Apoptosis assay; format: cell-based
[2] = test system: EMT targets in H358, A549 and H460 cell lines; assay: Relative expression of EMT targets by quantitative RT-PCR in peptide treated cells; format: cell-based
Text: Here, mRNA was extracted from peptide treated cells and the relative expression of EMT targets evaluated by quantitative RT-PCR.

A549 cells = assay: Cisplatin sensitivity assay (Cell Titer Blue survival); format: cell-based; details: 100 nM peptide, cisplatin concentrations of 0.1-0.8 μM/ml, 48 h, FIG. 7E
Description: The effect of exon 4 peptide on sensitivity to cisplatin was evaluated by plating 10,000 A549 cells/well in a 96-well plate in triplicates. Five hours later, the medium was changed to DMEM containing 100 nM of exon 4 peptide, 100 nM of scrambled sham peptide, or no peptide. Fifteen minutes later, the medium was changed to DMEM containing […] of cisplatin for 48 h at 37° C. The cells were then assayed for survival by adding […] of Cell Titer Blue reagent for 1 h. The fluorescence was read at 560/590λ.

H358 = assay: In vitro functional assays in H358 over-expressing full-length OPNa; format: cell-based; details: H358, addition of the exon 4 peptide
Description: (§1) In vitro invasion, migration, proliferation and soft agar colony formation assays were performed using the H358, A549 and H460 cell lines as previously described (Goparaju et al. “Functional Heterogeneity of Osteopontin Isoforms in Non-small Cell Lung Cancer,” J Thorac Oncol 5:1516-23 (2010), which is hereby incorporated by reference in its entirety) with 100 nM of exon 4 peptide or scrambled sham peptide in experimental medium. Experiments were performed in triplicates and comparisons of effect were made between peptide and sham within each cell line.
The effects of mutated OPN and the exon 4 peptide in H358, a NSCLC cell line with low endogenous OPN expression, were insightful. This cell line has low malignant potential; however, malignant properties are increased by over-expression of full-length OPNa, but not by over-expression of OPNc or the PDAV-deleted mutant. Further, the tumorigenic effects of full-length OPNa over-expression are abolished by addition of the exon 4 peptide in this cell line.

[3] = test system: H358, A549 and H460 cell lines; assay: In vitro proliferation assay; format: cell-based
Description: as §1

NSCLC cell surface = NSCLC cell surface binding / competitive binding assay with fluorescent (FAM) labeled peptide; format: cell-based; details: for binding of fluorescently labeled peptide to the surface of the NSCLC cell lines: 100 nM FAM labeled peptide, 1 hour, FIG. 6A; for displacement of fluorescent labeled exon 4 peptide from the NSCLC cell surface by competitor: recombinant protein as competitor, 30 minutes, FIGS. 6B, 6C
Description: More particularly, the peptide mimic sequence was selected that contained the PDAV region, along with a scrambled sham of the same length. Peptides were constructed and fluorescent (FAM) labeled by Think peptides (Proimmune, Sarasota, Fla.). NSCLC cell surface binding was assayed by seeding ten thousand NSCLC cells per well in a 96-well plate and allowing them to sit for overnight at 37° C. The cells were treated with 100 nM of FAM labeled Exon4 and FAM labeled scrambled peptide for 1 hour and then gently washed with 0.1% BSA in PBS for three times followed by treating with recombinant Osteopontin at 1 uM, 500 nM, 250 nM, 125 nM, 62.5 nM and 31.25 nM for 30 minutes. The cells are then washed thrice with 0.1% BSA in PBS and measured the fluorescence at […].

[4] = test system: H358, A549 and H460 cell lines; assay: In vitro invasion assay; format: cell-based
Description: as §1

[5] = molecular target: membrane-associated protein complex on NSCLC cells (un-described cell surface receptor for OPN exon 4; H358, A549 and H460 cell surface); assay: cell-based or functional assay
[6] = H358 cells with low endogenous OPN expression

## KYPDAVATWLNPDPSQK (also: FAM label) [exon 4 peptide]
[1]; [6]
  apoptosis: less impact
[1]; cells with high endogenous OPN expression (A549 and H460), peptide in media, FIG. 7C
  apoptosis: increased
[2]; A549 and H460 cell lines, FIG. 9A
  relative expression of TFGb1-r: significant decrease
[2]; A549 and H460 cell lines, FIG. 9B
  relative expression of N-cadherin: significant decrease
[2]; A549 and H460 cell lines, FIG. 9C
  relative expression of desmoplakin: significant increase
[2]; A549 and H460 cell lines, FIG. 9D
  relative expression of cytokeratin-20: significant increase
[2]; H358 cell line with low endogenous OPN
  relative expression of the same EMT markers (TFGb1-r, N-cadherin, desmoplakin, cytokeratin-20): lesser impact
A549 cells
  decrease in cell viability compared to untreated or scrambled peptide (cisplatin sensitivity): 2 fold
H358
  tumorigenic effects of full-length OPNa over-expression: abolished
[3]; [6]
  proliferation: less impact
[3]; cells with high endogenous OPN expression (A549 and H460), 100 nM peptide in media, FIG. 7A
  proliferation: decreased
NSCLC cell surface
  binding of fluorescently labeled peptide to the surface of the NSCLC cell lines: specifically binds
[4]; FIG. 7D
  invasive capacity: decrease
[4]; [6]
  invasion: less impact
[4]; cells with high endogenous OPN expression (A549 and H460), 100 nM peptide in media, FIGS. 7B and 7D
  invasion: decreased
[4]; exon 4 peptide added to exogenous rOPNa, FIG. 7D
  impact of exogenous rOPNa on invasion: blocks

## WQKPAPLDTDPKVYANS (Scrambled Sham Peptide) [scrambled sham control of the same length as the peptide mimic, reference compound]
NSCLC cell surface
  binding of fluorescently labeled peptide to the surface of the NSCLC cell lines: does not

## rOPNa: recombinant full-length OPN (rOPNa, R&D, Minneapolis, Minn.)
NSCLC cell surface
  displacement of fluorescent labeled exon 4 peptide from the NSCLC cell surface by competitor: displaced by molar equivalents
NSCLC cell surface; listed as recombinant OPN
  displacement of fluorescent labeled exon 4 peptide from the NSCLC cell surface by competitor: able to compete the peptide off the cell surface

## KYPDAVATWLNPDPSQK (also: FAM label, position not given here)
[5]
  fold decrease in cell viability under cisplatin (cisplatin sensitivity, A549): 2 fold
